Literature values as cited in patent US20200215149A1, “N-Phenylacetyl-L-prolylglycine ethyl ester compositions and methods for using the same” (priority 2019, published 2020).
Like-named read-outs stand apart in the source and are kept apart here. Where a SMILES comes first, the peptide text is derived from it. The star is where a group is joined. PhAc = O=C(Cc1ccccc1)*

Columns and labels:
[1] = ratio versus piracetam; Neznamov and Teleshova (2009)
[2] = Ostrovskaya, et al. (2008); Hayakawa, et al. (2007)

## CCOC(=O)CNC(=O)[C@@H]1CCCN1C(=O)Cc1ccccc1 [noopept, N-Phenylacetyl-L-prolylglycine ethyl ester] (PhAc-Pro-Gly-OEt)
Healthy human subjects, compared with piracetam, Neznamov and Teleshova (2009)
  side effects: fewer side effects
[1]
  effective dose, times smaller in mass than the effective dose of piracetam: over 50 times
[2]
  tolerance or addiction: neither noopept nor CBD has been shown to cause the user to become tolerant or addicted

## C=C(C)[C@@H]1CCC(C)=C[C@H]1c1c(O)cc(CCCCC)cc1O [CBD, cannabidiol]
Humans who consume effective doses of CBD, Bergamaschi, et al. (2011)
  side effects: generally does not cause significant side effects
[2]
  tolerance or addiction: neither noopept nor CBD has been shown to cause the user to become tolerant or addicted
